Data on three compounds can be found in patent US4971967A, “Quinolinecarboxylic acid derivatives, antibacterial compositions and use” (Kanebo Ltd, priority 1989, dated 1990).

Type in all cases: cell-based
The subject of experiment [1] is Staphylococcus epidermidis IAM-1296. Description: Antibacterial activity (MIC), S. epidermidis IAM-1296. To be noted: Staphylococcus epidermidis, IAM1296, Staphylococcus epidermidis IAM-1296, Gram +; read-out: Minimum inhibitory concentration (MIC). The method, then: (§1) The compounds of the present invention (A, C, D, E, F, G, H, I, J, L, O and P) and the known compound (X) as reference were dissolved in 0.1 N aqueous sodium hydroxide to prepare a solution of 5000 μg/ml in concentration. The compounds of the present invention (B, K, M and N) and the known compound (Y) were dissolved in sterilized distilled water to prepare a solution of 5000 μg/ml in concentration. Each solution was diluted with sterilized distilled water to prepare a standard solution with a concentration of each test compound: 1000 μg/ml. The test was carried out by a method as appointed by Japan Society of Chemotherapy [cf. Chemotherapy, 29, 76-79 (1981)(TOKYO)].

Experiment [2] has as its system Pseudomonas aeruginosa E-2. In words: Antibacterial activity (MIC), P. aeruginosa E-2. To be noted: E2; Pseudomonas aeruginosa E-2, Gram -; read-out: Minimum inhibitory concentration (MIC). On the procedure: as §1
The test system of experiment [3] is Enterobacter aerogenes ATCC 13048. Description: Antibacterial activity (MIC), Enterobacter aerogenes ATCC 13048. The conditions noted are these: Klebsiella aerogenes, ATCC13048; Enterobacter aerogenes ATCC 13048, Gram -; read-out: Minimum inhibitory concentration (MIC). The method, then:
as §1

Experiment [4] has as its system Serratia marcescens IAM 1184. In words: Antibacterial activity (MIC), Serratia marcescens IAM 1184. The conditions noted are these: Serratia marcescens, IAM1184, Serratia marcescens IAM 1184, Gram -; read-out: Minimum inhibitory concentration (MIC). On the procedure: as §1
Experiment [5] has as its system Klebsiella pneumoniae PCI-602. Description: Antibacterial activity (MIC), Klebsiella pneumoniae PCI-602. The conditions noted are these: PCI602; Klebsiella pneumoniae PCI-602, Gram -; read-out: Minimum inhibitory concentration (MIC). On the procedure: as §1
Experiment [6] concerns Morganella morganii IFO 3848. Description: Antibacterial activity (MIC), Morganella morganii IFO 3848. The conditions noted are these: Morganella morganii, IFO3848, Morganella morganii IFO 3848, Gram -; read-out: Minimum inhibitory concentration (MIC). The method, then: as §1
Another experiment concerns Escherichia coli KC-14. Description: Antibacterial activity (MIC), E. coli KC-14. The conditions noted are these: KC14; Escherichia coli KC-14, Gram -; read-out: Minimum inhibitory concentration (MIC). On the procedure:
as §1

Experiment [7] deals with Pseudomonas aeruginosa IFO 3445. In words: Antibacterial activity (MIC), P. aeruginosa IFO 3445. The conditions noted are these: Pseudomonas aeruginosa, IFO3445, Pseudomonas aeruginosa IFO 3445, Gram -; read-out: Minimum inhibitory concentration (MIC). The method, then: as §1
The subject of experiment [8] is Citrobacter freundii NIHJ 10018-68. In words: Antibacterial activity (MIC), Citrobacter freundii NIHJ 10018-68. The conditions noted are these: Citrobacter freundii, NIHJ10018, Citrobacter freundii NIHJ 10018-68, Gram -; read-out: Minimum inhibitory concentration (MIC). On the procedure:
as §1

Experiment [9] concerns Proteus mirabilis IFO 3849. In words: Antibacterial activity (MIC), Proteus mirabilis IFO 3849. The conditions noted are these: IFO3849; Proteus mirabilis IFO 3849, Gram -; read-out: Minimum inhibitory concentration (MIC). On the procedure:
as §1

In the next experiment the test system is Shigella sonnei EW-33. In words: Antibacterial activity (MIC), Shigella sonnei EW-33. To be noted: Shigella sonnei, EW33, Shigella sonnei EW-33, Gram -; read-out: Minimum inhibitory concentration (MIC). The method, then: as §1
Another experiment has as its system Enterobacter cloacae 963. In words: Antibacterial activity (MIC), Enterobacter cloacae 963. To be noted: Enterobacter cloacae, 963, Enterobacter cloacae 963, Gram -; read-out: Minimum inhibitory concentration (MIC). The method, then:
as §1

Experiment [10] concerns Staphylococcus aureus IID 803. In words: Antibacterial activity (MIC), S. aureus IID 803. The conditions noted are these: IID803; Staphylococcus aureus IID 803, Gram +; read-out: Minimum inhibitory concentration (MIC). The method, then: as §1
Experiment [11] deals with Acinetobacter calcoaceticus AC 54. Description: Antibacterial activity (MIC), Acinetobacter calcoaceticus AC 54. To be noted: AC54; Acinetobacter calcoaceticus AC 54, Gram -; read-out: Minimum inhibitory concentration (MIC). The method, then: as §1
Experiment [12] concerns Escherichia coli NIHJ JC-2. In words: Antibacterial activity (MIC), E. coli NIHJ JC-2. The conditions noted are these: NIHJJC2; Escherichia coli NIHJ JC-2, Gram -; read-out: Minimum inhibitory concentration (MIC). The method, then:
as §1

The subject of experiment [13] is Micrococcus luteus ATCC 9341. In words: Antibacterial activity (MIC), Micrococcus luteus ATCC 9341. To be noted: ATCC9341; Micrococcus luteus ATCC 9341, Gram +; read-out: Minimum inhibitory concentration (MIC). The method, then:
as §1

Experiment [14] has as its system Salmonella typhimurium IID 971. In words: Antibacterial activity (MIC), Salmonella typhimurium IID 971. The conditions noted are these: Salmonella enterica, read-out: Minimum inhibitory concentration (MIC). The method, then:
as §1

The next experiment relates to Proteus vulgaris OX-19. In words: Antibacterial activity (MIC), Proteus vulgaris OX-19. The conditions noted are these: OX19; Proteus vulgaris OX-19, Gram -; read-out: Minimum inhibitory concentration (MIC). On the procedure: as §1
Experiment [15] deals with Bacillus subtilis ATCC 6633. Description: Antibacterial activity (MIC), Bacillus subtilis ATCC 6633. The conditions noted are these: Bacillus subtilis, ATCC6633, Bacillus subtilis ATCC 6633, Gram +; read-out: Minimum inhibitory concentration (MIC). On the procedure: as §1
Experiment [16] has as its system Staphylococcus aureus FDA 209P JC-1. In words: Antibacterial activity (MIC), S. aureus FDA 209P JC-1. The conditions noted are these: FDA209P; Staphylococcus aureus FDA 209P JC-1, Gram +; read-out: Minimum inhibitory concentration (MIC). On the procedure:
as §1

The test system of experiment [17] is Streptococcus faecalis IID 682. In words: Antibacterial activity (MIC), Streptococcus faecalis IID 682. To be noted: Enterococcus faecalis, IID682, read-out: Minimum inhibitory concentration (MIC). On the procedure: as §1
Experiment [18] relates to Pseudomonas aeruginosa NCTC 10490. Description: Antibacterial activity (MIC), P. aeruginosa NCTC 10490. The conditions noted are these: Pseudomonas aeruginosa, NCTC10490, Pseudomonas aeruginosa NCTC 10490, Gram -; read-out: Minimum inhibitory concentration (MIC). On the procedure:
as §1

SMILES strings stand for the structures. ≈ marks a conversion by molar mass, not a printed value. Where two headings read alike, the source gives them in different places.

In the case of `CN1Cc2csc3c(C(=O)O)c(=O)c4cc(F)c(N5CCCC5)c1c4n23` [Compound (F), 9,1-(Methylimino)methano-7-fluoro-8-(1-pyrrolidinyl)-5-oxo-5H-thiazolo[3,2-a]quinoline-4-carboxylic acid], the MIC in [1] was found to be 0.025 µg/mL (≈ 0.067 µM); in [2], 0.39 µg/mL (≈ 1.04 µM); in experiment [3], 0.39 µg/mL (≈ 1.04 µM); in experiment [4] it was 0.78 µg/mL (≈ 2.09 µM); in experiment [5] it was 0.006 µg/mL (≈ 0.0161 µM); in experiment [6], 0.39 µg/mL (≈ 1.04 µM). In addition, the MIC with Escherichia coli KC-14 turned out to be 0.2 µg/mL (≈ 0.536 µM); in experiment [7], 0.78 µg/mL (≈ 2.09 µM); in [8] it was 1.56 µg/mL (≈ 4.18 µM); in experiment [9], 0.39 µg/mL (≈ 1.04 µM); in the experiment with Shigella sonnei EW-33, 0.1 µg/mL (≈ 0.268 µM); with Enterobacter cloacae 963, 0.39 µg/mL (≈ 1.04 µM). Further, the MIC was 0.0125 µg/mL (≈ 0.0335 µM) in [10]; 0.006 µg/mL (≈ 0.0161 µM) in [11]; 0.2 µg/mL (≈ 0.536 µM) in experiment [12]; 0.39 µg/mL (≈ 1.04 µM) in [13]; 0.2 µg/mL (≈ 0.536 µM) in experiment [14] (Salmonella typhimurium IID 971, Gram -); 0.025 µg/mL (≈ 0.067 µM) with Proteus vulgaris OX-19. Also, the MIC stood at 0.006 µg/mL (≈ 0.0161 µM) in [15], 0.0125 µg/mL (≈ 0.0335 µM) in experiment [16], 0.1 µg/mL (≈ 0.268 µM) in experiment [17] and 0.39 µg/mL (≈ 1.04 µM) in [18].
Turning to `CN1Cc2csc3c(C(=O)O)c(=O)c4cc(F)c(N5CCC(O)C5)c1c4n23` (stereo not drawn) [Compound (G), 9,1-(Methylimino)methano-7-fluoro-8-(3-hydroxy-1-pyrrolidinyl)-5-oxo-5H-thiazolo[3,2-a]quinoline-4-carboxylic acid], the MIC amounted to 0.0125 µg/mL (≈ 0.0321 µM) in [1]; 0.78 µg/mL (≈ 2 µM) in experiment [2]; 0.2 µg/mL (≈ 0.514 µM) in experiment [3]; 0.78 µg/mL (≈ 2 µM) in experiment [4]; 0.006 µg/mL (≈ 0.0154 µM) in experiment [5]; 0.2 µg/mL (≈ 0.514 µM) in experiment [6]. Besides, the MIC was 0.1 µg/mL (≈ 0.257 µM) with Escherichia coli KC-14; 0.78 µg/mL (≈ 2 µM) in [7]; 0.78 µg/mL (≈ 2 µM) in [8]; 0.1 µg/mL (≈ 0.257 µM) in [9]; 0.05 µg/mL (≈ 0.128 µM) in the experiment on Shigella sonnei EW-33; 0.2 µg/mL (≈ 0.514 µM) in the experiment on Enterobacter cloacae 963. Moreover, the MIC in experiment [10] is 0.0125 µg/mL (≈ 0.0321 µM); in experiment [11], 0.006 µg/mL (≈ 0.0154 µM); in experiment [12], 0.1 µg/mL (≈ 0.257 µM); in [13] it was 0.39 µg/mL (≈ 1 µM); in [14], 0.05 µg/mL (≈ 0.128 µM); in the experiment with Proteus vulgaris OX-19 it was 0.0125 µg/mL (≈ 0.0321 µM). The MIC in [15] was found to be 0.006 µg/mL (≈ 0.0154 µM); in experiment [16], 0.0125 µg/mL (≈ 0.0321 µM); in [17], 0.05 µg/mL (≈ 0.128 µM); in experiment [18], 0.39 µg/mL (≈ 1 µM).
Consider `CN1Cc2csc3c(C(=O)O)c(=O)c4cc(F)c(N5CCOCC5)c1c4n23` [Compound (I), 9,1-(Methylimino)methano-7-fluoro-8-morpholino-5-oxo-5H-thiazolo[3,2-a]quinoline-4-carboxylic acid], for which the MIC in [1] came out at 0.025 µg/mL (≈ 0.0642 µM); in experiment [2] it was 0.39 µg/mL (≈ 1 µM); in experiment [3], 0.2 µg/mL (≈ 0.514 µM); in experiment [4], 0.39 µg/mL (≈ 1 µM); in experiment [5] it was 0.006 µg/mL (≈ 0.0154 µM); in experiment [6], 0.1 µg/mL (≈ 0.257 µM). In addition, the MIC in the experiment with Escherichia coli KC-14 is 0.1 µg/mL (≈ 0.257 µM); in [7] it was 0.39 µg/mL (≈ 1 µM); in experiment [8], 0.78 µg/mL (≈ 2 µM); in experiment [9], 0.1 µg/mL (≈ 0.257 µM); in the experiment on Shigella sonnei EW-33 it was 0.05 µg/mL (≈ 0.128 µM); in the experiment with Enterobacter cloacae 963, 0.1 µg/mL (≈ 0.257 µM). Further, the MIC was 0.006 µg/mL (≈ 0.0154 µM) in experiment [10]; 0.006 µg/mL (≈ 0.0154 µM) in experiment [11]; 0.1 µg/mL (≈ 0.257 µM) in [12]; 0.1 µg/mL (≈ 0.257 µM) in [13]; 0.05 µg/mL (≈ 0.128 µM) in experiment [14]; 0.025 µg/mL (≈ 0.0642 µM) with Proteus vulgaris OX-19. Further, the MIC is 0.006 µg/mL (≈ 0.0154 µM) in [15], 0.006 µg/mL (≈ 0.0154 µM) in experiment [16], 0.05 µg/mL (≈ 0.128 µM) in experiment [17] and 0.2 µg/mL (≈ 0.514 µM) in [18].
